Results from patent US5792784A, “Coupling product obtained from histamine and an amino acid” (Babizhayev; Marc, priority 1993, dated 1998).

Assays:
[1] = Inhibition of phosphatidylcholine liposome peroxidation (Fe/ascorbic acid; TBA/MDA); details: 10 mM; control 4.4
From the text: oxidation substrate: phosphatidylcholine liposomes
free radicals generating system : Fe/ascorbic acid detection: thiobarbituric acid (TBA)/malondialdehyde (MDA)

[2] = Inhibition of deoxyribose oxidation (superoxide from xanthine oxidase/hypoxanthine; TBA/MDA detection); format: biochemical; details: 10 mM
From the text: Several in vitro tests have been carried out in order to reveal the evoked different antioxidant properties.
Experimental procedure described by J. M. C. Gutteridge in Biochemistry Journal, vol. 224 (1984), p. 761-767: oxidation substrate: deoxyribose
Superoxide anions production system: xanthine oxidase/hypoxanthine detection: thiobarbituric acid/malondialdehyde (MDA)

[3] = Tests with peroxidized compounds: reducing behaviour; format: biochemical
[4] = system: murine splenocytes; assay: Immunostimulating activity in vitro on murine splenocytes (tritiated thymidine incorporation); format: cell-based
From the text: The procedure is extracted from: J. Kunert-Radek, H. Stepien, K. Lyson and M. Pawlikowski--"Effects of calcium channel modulators on the proliferation of mouse spleen lymphocytes in vitro"--Agents and Actions, vol. 29, Nos 3-4 (1990), p. 254-258.
The cell proliferation is followed by the measurement of the extent of incorporation of tritriated thymidine in the cells, expressed in numbers of desintegrations per mn, deducted from the background.
The results obtained with an immunostimulator of reference, concanavaline A, are given as a comparison.
The immunostimulating effect is expressed by an Index of Stimulation (IS) [formula]
The given values are corresponding to the average of three measures.

[5] = system: cataract; assay: Cataract patients: modification of the visual acuity at the end of 24 months; format: in vivo; details: 24 months
From the text: This example concerns the utilization of the β-alanyl-histamine to treat patients affected by cataract.
The study has been designed for a prospective evaluation of the modifications of the lens opacity in patients effected by cataract. All the patients have undergone an initial ophtalmic examination. It involved the making of the medical historical record of the patient, a measurement of the visual acuity at a maximum correction, direct or indirect ophtalmoscopies, an evaluation of the opacities with the slit lamp, a clinical grading of the lens after maximal mydriasis, a classification according to the cataract type, and lens pictures by retroillumination. Moreover, samples of blood have been taken at the beginning, then in follow-up for chemical analysis.
The general view has allowed to establish the initial state of patients before the treatment (definition of "base line").
Follow-up of ophtalmic examinations were carried out every two weeks for two months, then every month. They included maximum visual acuity after correction, direct or indirect ophtalmoscopies, a slit lamp examination, and after a maximum dilation of the pupil (excluding patients with primary open-angle glaucoma), a clinical lens grading, a classification of the cataract. Pictures also have been taken on lens observed by retroillumination or with the slit lamp.
In this study, differents groups have been determined, to be seen:
A group reference 1, with non-treated patients (5 patients, 7 eyes) […]
A group 3, has been submitted to the same treatment than the group 2, stimulated by an "attack type of treatment" during the first two weeks: 2 subcon-junctival junctival injections twice a week of 0.10 to 0.15 ml of the saline defined for the group 2 (3 patients, 4 eyes).
A group 4, which was given a local dose by way of an eye drop of isotonic saline twice a day (5 patients 7 eyes), the group 4 being like the group 1, a reference group.
Following the protocol described above, we determine the values of the optic density of the lens according to its opacity as well as the visual acuity, and the whole for 24 months. Considering these two parameters, we obtain tables giving results concerning the modification of the visual acuity at the end of 24 months in Tables 1 and 2, and the results concerning the modification of the visual opacity at the end of 24 months in Tables 3 and 4.

[6] = "Peroxidase" activity: reduction of 13-monoperoxide of linoleic acid (L-OOH); format: biochemical; details: for "peroxidase" activity: 13-monoperoxide linoleic acid 0.5 mM, control 36.7
Experimental: Lipid peroxides evolution is monitored with the help of 3 methods:
1°) spectrophotometric measure at 233 nm
(O. S. Privett, C. Nickell, W. O. Lundberg, and P. D. Bayer, dans J.Am.Oil Chem. Soc, Vol 32 (1955), P.505-511
2°) Iodometric dosage: M.Hicks' and J. M. Gebicki's method, Analytical Biochemistry, vol 99 (1979), p 249-253.
3°) Chromatography on silica gel plate (hexane/ether/acetic acid 8/7/0.1).
(a) 13-monoperoxide linoleic acid 0.5 mM without reducing agent (preparation according to H. W. Gardner's method Lipids, Vol.10 (1975), p. 248-252).

[7] = groups 2 and 3, start acuity 20/30
[8] = groups 2 and 3, start acuity 20/40
[9] = groups 2 and 3, start acuity 20/50
[10] = groups 2 and 3, start acuity 20/70
[11] = groups 2 and 3, start acuity 20/100
[12] = groups 2 and 3, total of 19 eyes

% inhibition of deoxyribose oxidation [2]: 49%
"peroxidase" activity ([6]; 10 mM): 138.1 mol of L-OOH reduced/hour
"peroxidase" activity ([6]; 20 mM): 187.5 mol of L-OOH reduced/hour
"peroxidase" activity with the adding of EDTA ([6]; EDTA 0.5 mM): completely inhibited
SMILES: NCCC(=O)NCCc1c[nH]cn1 [β-alanyl-histamine]
MDA per mg of phospholipids [1]: 2.5 mol MDA per mg of phospholipid
reducing behaviour towards peroxidized compounds [3]: behaves in a way comparable to β-alanyl-histidine or carnosine
concentration of maximum immunostimulating effect [4]: 25 µg/mL
immunostimulating activity versus reference mitogen [4]: comparable with a reference mitogen, concanavaline A
fold induction at 2.5 µg/mL ([4]; Mus musculus, Splenocyte, 2.5 μg/ml, average of three measures, read-out: Index of Stimulation (IS)): 4.8
fold induction at 5 µg/mL ([4]; Mus musculus, Splenocyte, 5 μg/ml, average of three measures, read-out: Index of Stimulation (IS)): 15.7
fold induction at 10 µg/mL ([4]; Mus musculus, Splenocyte, 10 μg/ml, average of three measures, read-out: Index of Stimulation (IS)): 16.9
fold induction at 25 µg/mL ([4]; Mus musculus, Splenocyte, 25 μg/ml, average of three measures, read-out: Index of Stimulation (IS)): 18.6
fold induction at 50 µg/mL ([4]; Mus musculus, Splenocyte, 50 μg/ml, average of three measures, read-out: Index of Stimulation (IS)): 12.8
improvement of the visual acuity + (number of eyes) ([5]; groups 2 and 3, start acuity 20/25): 1 eyes
improvement of the visual acuity + (number of eyes) [5, 7]: 1 eyes
improvement of the visual acuity ++ (number of eyes) [5, 7]: 4 eyes
improvement of the visual acuity + (number of eyes) [5, 8]: 1 eyes
improvement of the visual acuity ++ (number of eyes) [5, 8]: 3 eyes
improvement of the visual acuity + (number of eyes) [5, 9]: 1 eyes
improvement of the visual acuity ++ (number of eyes) [5, 9]: 1 eyes
improvement of the visual acuity + (number of eyes) [5, 10]: 1 eyes
improvement of the visual acuity ++ (number of eyes) [5, 10]: 1 eyes
improvement of the visual acuity ++ (number of eyes) [5, 11]: 1 eyes
improvement of the visual acuity +++ (number of eyes) [5, 11]: 2 eyes
regression of the visual acuity ++ (number of eyes) [5, 11]: 1 eyes
improvement of the visual acuity ++ (number of eyes) ([5]; groups 2 and 3, start acuity 20/200): 1 eyes
improvement of the visual acuity + (number of eyes) [5, 12]: 5 eyes
improvement of the visual acuity ++ (number of eyes) [5, 12]: 11 eyes
improvement of the visual acuity +++ (number of eyes) [5, 12]: 2 eyes
regression of the visual acuity + (number of eyes) [5, 12]: 0 eyes
regression of the visual acuity ++ (number of eyes) [5, 12]: 1 eyes
regression of the visual acuity +++ (number of eyes) [5, 12]: 0 eyes
improvement of the vision and regression of cataract ([5]; two parameters: visual acuity and opacity): very significant in the improvement of the vision and the regression of cataract
